Laboratory results taken from publication PMC12024264, “Frog Skin Peptides Hylin-a1, AR-23, and RV-23: Promising Tools Against Carbapenem-Resistant Escherichia coli and Klebsiella pneumoniae Infections” (Antibiotics, 2025).
In brackets after ≈: the same amount, converted by molar mass. Like-named read-outs stand apart in the source and are kept apart here.

Tests used:
K. pneumoniae = assay: Checkerboard assay with meropenem
Text: (§6) The synergistic effect of the selected peptides and meropenem was examined using a checkerboard assay. This method investigates the interaction between various antimicrobial agents and their combined effectiveness against bacteria. […] It determines whether the combined agents act synergistically, additively, or antagonistically to identify combinations that can reduce drug resistance.
(§7) The rows contain two-fold dilutions of meropenem, while we reported a two-fold serial dilution of AMPs in the columns.
(§8) The checkerboard test was carried out to assess the antibacterial activity of peptides in combination with antibiotics. The test was performed by preparing the bacterial inoculum in the same manner as the tests described above. Non-toxic concentrations of all peptides and serial dilutions of meropenem were inoculated in a 96-well plate either alone or in combination. After 20 h, the plate was read at OD600, and the Fractional Inhibitory Concentration (FICI) was calculated according to the following formula:FICI = FIC (A) + FIC (B)
(§9) FIC (A) = MIC peptide in combination/MIC peptide alone
(§10) FIC (B) = MIC meropenem in combination/MIC Meropenem alone

E. coli = assay: Checkerboard assay with meropenem
Text: as §6, §7, §8, §9, §10

K. pneumoniae 1745 = assay: Antibiotic resistance profile of clinical isolate (Table S1); type: cell-based, Klebsiella pneumoniae; settings: Table S1, K. pneumoniae 1745
Method: (§1) Each strain was grown in Mueller Hinton Broth (MH Broth), and 5 × 10^5 CFU/mL was used to evaluate antibacterial activity. Clinical carbapenem-resistant K. pneumoniae and E. coli isolates were collected at the AOU of Virology and Microbiology of the University of Campania “Luigi Vanvitelli”. […]
(§2) Table S1. Antibiotic resistance profile of K. pneumoniae and E. coli clinical isolates . MIC: Minimum Inhibitory
(§3) Concentration was expressed in µg/mL; S: Sensible; I: Intermediate; R: Resistant.
(§4) Antibiotic Resistance Profile of the Clinical Isolated Bacteria
(§5) Antibiotics MIC (µg/mL) Interpretation […]

K. pneumoniae 1746 = assay: as above; type: cell-based, Klebsiella pneumoniae
Method: as §1, §2, §3, §4, §5

K. pneumoniae 1711 = assay: as above; type: cell-based, Klebsiella pneumoniae; settings: Table S1, K. pneumoniae 1711
Method: as §1, §2, §3, §4, §5

E. coli 2267 = assay: as above; type: cell-based, Escherichia coli; settings: Table S1, E. coli 2267
Method: as §1, §2, §3, §4, §5

E. coli 3140 = assay: as above; type: cell-based, Escherichia coli; settings: for MIC: Escherichia coli, 3140; for Interpretation: Table S1, E. coli 3140
Method: as §1, §2, §3, §4, §5

E. coli 1441 = assay: as above; type: cell-based, Escherichia coli
Method: as §1, §2, §3, §4, §5

E. coli 1376 = assay: as above; type: cell-based, Escherichia coli
Method: as §1, §2, §3, §4, §5

E. coli 716 = assay: as above; type: cell-based, Escherichia coli
Method: as §1, §2, §3, §4, §5

K. pneumoniae 311 = assay: as above; type: cell-based, Klebsiella pneumoniae
Method: as §1, §2, §3, §4, §5

[1] = Klebsiella pneumoniae, read-out: MIC
[2] = Escherichia coli, read-out: MIC

Compound: C[C@@H](O)[C@H]1C(=O)N2C(C(=O)O)=C(S[C@@H]3CN[C@H](C(=O)N(C)C)C3)[C@H](C)[C@H]12 [Meropenem]
- MIC (K. pneumoniae; Klebsiella pneumoniae, read-out: MIC of meropenem): 5 µg/mL
- MIC of antibiotic (meropenem) in combination (K. pneumoniae; combined with AR23 at 3.125 μM): 0.625 µg/mL
- MIC of antibiotic (meropenem) in combination (K. pneumoniae; combined with RV-23 at 3.125 μM): 0.625 µg/mL
- MIC (E. coli; Escherichia coli, read-out: MIC of meropenem): 5 µg/mL
- MIC of antibiotic (meropenem) in combination (E. coli; combined with AR23 at 6.25 μM): 1.25 µg/mL
- MIC of antibiotic (meropenem) in combination (E. coli; combined with Hylin-a1 at 3.125 μM): 2.5 µg/mL
- MIC of antibiotic (meropenem) in combination (E. coli; combined with RV-23 at 6.25 μM): 2.5 µg/mL
- MIC (K. pneumoniae 1745; [1]): > 16 µg/mL
- Interpretation (K. pneumoniae 1745): R
- MIC (K. pneumoniae 1746; Klebsiella pneumoniae, 1746): 1 µg/mL (≈ 2.61 µM)
- Interpretation (K. pneumoniae 1746; Table S1, K. pneumoniae 1746): S
- MIC (K. pneumoniae 1711; [1]): > 16 µg/mL
- Interpretation (K. pneumoniae 1711): R
- MIC (E. coli 2267; [2]): > 16 µg/mL
- Interpretation (E. coli 2267): R
- MIC (E. coli 3140): 0.5 µg/mL (≈ 1.3 µM)
- Interpretation (E. coli 3140): S
- MIC (E. coli 1441; Escherichia coli, 1441): 1 µg/mL (≈ 2.61 µM)
- Interpretation (E. coli 1441; Table S1, E. coli 1441): S
- MIC (E. coli 1376; Escherichia coli, 1376): > 16 µg/mL
- Interpretation (E. coli 1376; Table S1, E. coli 1376): R
- MIC (E. coli 716; Escherichia coli, 716): > 16 µg/mL
- Interpretation (E. coli 716; Table S1, E. coli 716): R

Compound: NC[C@H]1O[C@H](O[C@H]2[C@H](O)[C@@H](O[C@H]3O[C@H](CO)[C@@H](O)[C@H](N)[C@H]3O)[C@H](N)C[C@@H]2N)[C@H](N)C[C@@H]1O [Tobramycin]
- MIC (K. pneumoniae 311; Klebsiella pneumoniae, 311): > 4 µg/mL
- Interpretation (K. pneumoniae 311; Table S1, K. pneumoniae 311): R
- MIC (K. pneumoniae 1745; [1]): > 4 µg/mL
- Interpretation (K. pneumoniae 1745): R
- MIC (K. pneumoniae 1746; Klebsiella pneumoniae, 1746): > 4 µg/mL
- Interpretation (K. pneumoniae 1746; Table S1, K. pneumoniae 1746): R
- MIC (K. pneumoniae 1711; [1]): > 4 µg/mL
- Interpretation (K. pneumoniae 1711): R
- MIC (E. coli 2267; [2]): ≤ 1 µg/mL
- Interpretation (E. coli 2267): S
- MIC (E. coli 3140): ≤ 1 µg/mL
- Interpretation (E. coli 3140): S
- MIC (E. coli 1441; Escherichia coli, 1441): ≤ 1 µg/mL
- Interpretation (E. coli 1441; Table S1, E. coli 1441): S
- MIC (E. coli 1376; Escherichia coli, 1376): > 4 µg/mL
- Interpretation (E. coli 1376; Table S1, E. coli 1376): R
- MIC (E. coli 716; Escherichia coli, 716): ≤ 1 µg/mL
- Interpretation (E. coli 716; Table S1, E. coli 716): S

Compound: Amoxicillin/clavulanate
- Interpretation (K. pneumoniae 311; Table S1, K. pneumoniae 311): R
- MIC (K. pneumoniae 311; Table S1, K. pneumoniae 311): > 32/2
- Interpretation (K. pneumoniae 1745): R
- MIC (K. pneumoniae 1745): > 32/2
- Interpretation (K. pneumoniae 1746; Table S1, K. pneumoniae 1746): R
- MIC (K. pneumoniae 1746; Table S1, K. pneumoniae 1746): > 32/2
- Interpretation (K. pneumoniae 1711): R
- MIC (K. pneumoniae 1711): > 32/2
- Interpretation (E. coli 2267): R
- Interpretation (E. coli 3140): R
- Interpretation (E. coli 1441; Table S1, E. coli 1441): R
- MIC (E. coli 1441; Table S1, E. coli 1441): > 32/2
- Interpretation (E. coli 1376; Table S1, E. coli 1376): R
- MIC (E. coli 1376; Table S1, E. coli 1376): > 32/2
- Interpretation (E. coli 716; Table S1, E. coli 716): R

Compound: Ceftazidime-avibactam
- Interpretation (K. pneumoniae 311; Table S1, K. pneumoniae 311): S
- MIC (K. pneumoniae 311; Table S1, K. pneumoniae 311): 1/ 4
- Interpretation (K. pneumoniae 1745): R
- MIC (K. pneumoniae 1745): > 8/4
- Interpretation (K. pneumoniae 1746; Table S1, K. pneumoniae 1746): R
- MIC (K. pneumoniae 1746; Table S1, K. pneumoniae 1746): > 8/4
- Interpretation (K. pneumoniae 1711): R
- MIC (K. pneumoniae 1711): > 8/4
- Interpretation (E. coli 2267): S
- MIC (E. coli 2267): 8/4
- Interpretation (E. coli 3140): S
- Interpretation (E. coli 1441; Table S1, E. coli 1441): S
- Interpretation (E. coli 1376; Table S1, E. coli 1376): S
- Interpretation (E. coli 716; Table S1, E. coli 716): S
- MIC (E. coli 716; Table S1, E. coli 716): 8/4
